The values that follow come from BindingDB's records for patent US12351556 (Inserm (Institut National De La Sante Et De La Recherche …, 2025).

Structures are written as SMILES.

For the assay, the target named is Mitogen-activated protein kinase 14 (Homo sapiens, UniProt Q16539). Nature of the assay: In Vitro Affinity Assay.
Mitogen-activated protein kinase 14, sequence (Q16539 whole entry): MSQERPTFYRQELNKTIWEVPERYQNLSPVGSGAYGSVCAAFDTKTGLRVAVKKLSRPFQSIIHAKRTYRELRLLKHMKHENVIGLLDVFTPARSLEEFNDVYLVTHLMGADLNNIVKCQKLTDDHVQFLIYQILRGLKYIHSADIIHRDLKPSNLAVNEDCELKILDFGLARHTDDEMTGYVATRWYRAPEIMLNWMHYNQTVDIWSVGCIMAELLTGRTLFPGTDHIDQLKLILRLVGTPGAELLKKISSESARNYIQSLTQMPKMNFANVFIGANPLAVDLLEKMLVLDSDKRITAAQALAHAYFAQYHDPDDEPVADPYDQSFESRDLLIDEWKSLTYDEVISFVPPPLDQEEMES
Source text: Not found
What is called IC50 is the concentration needed to halve the response being measured. Compound `O=C1NC=C(Nc2ccccc2)CC1c1cccc2[nH]ccc12` (stereo not drawn) [US12351556, Compound 67] returned an IC50 of 3.03 µM.

As to `O=C1NC=C(Nc2ccccc2)CC1c1ccccc1Br` (stereo not drawn) [US12351556, Compound 69], the IC50 amounted to 1.46 µM.

`O=C1NCC(Nc2ccccc2F)C=C1c1cccc2[nH]ccc12` (stereo not drawn) [US12351556, Compound 118] showed an IC50 of 0.23 µM.

`O=C1NCC(Nc2ccc(F)cc2)C=C1c1cccc2[nH]ccc12` (stereo not drawn) [US12351556, Compound 119] returned an IC50 of 1.42 µM.

The compound `O=C1NCC(Nc2ccc(F)cc2)C=C1c1cccc2[nH]ccc12` (stereo not drawn) [US12351556, Compound 120] yielded an IC50 of 0.43 µM.

`COc1ccccc1NC1=CNC(=O)C(c2cccc3[nH]ccc23)C1` (stereo not drawn) [US12351556, Compound 121] returned an IC50 of 5.25 µM.

In turn, `COc1cccc(NC2=CNC(=O)C(c3cccc4[nH]ccc34)C2)c1` (stereo not drawn) [US12351556, Compound 122] yielded an IC50 of 5.53 µM.

In turn, `COc1ccc(NC2=CNC(=O)C(c3cccc4[nH]ccc34)C2)cc1` (stereo not drawn) [US12351556, Compound 123] showed an IC50 of 3.67 µM.

Compound `Cc1ccccc1NC1=CNC(=O)C(c2cccc3[nH]ccc23)C1` (stereo not drawn) [US12351556, Compound 130] yielded an IC50 of 1.06 µM.

`O=C1NCC(NC2=CC(O)CC=C2)C=C1c1cccc2[nH]ccc12` (stereo not drawn) [US12351556, Compound 134] gave an IC50 of 1.04 µM.

In turn, `O=C1NCC(Nc2ccccc2Br)C=C1c1cccc2[nH]ccc12` (stereo not drawn) [US12351556, Compound 141] showed an IC50 of 2.72 µM.

Take `O=C1NCC(NC2=CC(Br)CC=C2)C=C1c1cccc2[nH]ccc12` (stereo not drawn) [US12351556, Compound 142]: the midpoint of inhibition, the IC50, lay at 0.66 µM.

In turn, `O=C1NCC(Nc2ccc(Br)cc2)C=C1c1cccc2[nH]ccc12` (stereo not drawn) [US12351556, Compound 143] had an IC50 of 2.35 µM.
